The text below walks through data of US20260272923A1, “NONSENSE MEDIATED DECAY INHIBITOR COMPOUNDS” (The Johns Hopkins University, priority 2023, published 2026).

For one series, the system named is NCI-H358 and LS180 cells. As to the kind of experiment: MHC class I HLA presentation of mutant specific peptides by quantitative HPLC-Mass Spectrometry. It counts as cell-based. The conditions noted are these: 24 hours in-vitro, pan-HLA immunoprecipitation. Here is the method: Downregulating mutated genes with frame shifts via NMD is one mechanism employed by cancer cells to avoid immune surveillance. To confirm the small molecule could alter the immune landscape of a tumor, cell surface presentation of known mutant proteins was assessed in NCI-H358 and LS180 cells. Cells were treated in-vitro for 24 hours with DMSO or the compound of Formula I in duplicate, cross linked and immunoprecipitated with pan-HLA antibodies to obtain cell surface MHC presented peptides. 187 mutation specific peptides were initially identified that could be potentially presented by using the union of NetMHC and Predictor of Immunogenic Epitopes (PRIME) predictions. These predictions were tested by performing HPLC Mass Spectromety (MS) on cells that were treated in-vitro for 24 hours with DMSO or the compound of Formula I, cross linked and immunoprecipitated with pan-HLA antibodies to obtain cell surface MHC presented peptides. Based on those results, heavy isotope labeled peptides were designed for 14 peptides from NCI-H358, and 24 peptides from LS180 cells with high confidence of MS detection. These heavy labeled peptides were then used as internal standard to perform quantitative HPLC-Mass Spectrometry. […] This is consistent with re-expression of mutant protein shown previously by western blot (FIGS. 3C and 4D). […]

In a further series the test system is NCI-H716 and NCI-2228. As to the kind of experiment: Interferon gamma ELISA in co-culture with human CD8+ T-cells and TP53-CD3 bispecific antibody. It counts as cell-based. (An ELISA detects its analyte on a solid surface through an enzyme-linked reagent.)
A further series deals with phosphorylated UPF1. As to the kind of experiment: Phospho-UPF1 specific western blot. Format: cell-based. The conditions noted are these: three different cell lines. How it is done:
(§1) Analyzing a wider set of 21 NMD sensitive genes from the RNA-Seq analysis in LS180 confirmed that LY3023414 and SMG1 specific inhibitor increase the same 18 genes with a greater than 80% re-expression rate, in both cell lines. […] As SMG1 inhibition is an off target effect for LY3023414, the concentrations used in this study may result in inhibition of a number of different kinases.
(§2) To confirm disruption of downstream signaling of SMG1, a western blot was performed with phosphorylation specific antibodies for UPF1.

Series [1] can be described thus: Physical properties related to solubility. Format: physicochemical. The conditions noted are these: compared with previously made SMG1 specific inhibitors.
The subject of series [2] is nonsense mediated decay (NMD). As to the kind of experiment: NCI-H358 and LS180 xenograft tumors in NOD-SCID mice, mutant RNA transcripts and tolerability. Format: in vivo.
Series [3] relates to NMD targeted mutant protein (EXOC1, SPTAN1). As to the kind of experiment: Western blot of mutant proteins in NCI-H358 and LS180 cells. Format: cell-based. As to conditions: NCI-H358 and LS180.
Text: (§3) It was next sought to evaluate whether LY3023414 could relieve repression of indel containing transcripts in cancer cells. The microsatellite stable NCI-H358 and microsatellite instable LS180 lung and colorectal cancer cell lines were chosen respectively. Nearly 40% of heterozygous indel and 25% of nonsense single base-pair mutation containing genes show increased expression of their mutant allele when treated with LY3023414 when evaluated by RNA sequencing (FIG. 2A). […] Heterozygous single nucleotide polymorphism (SNP) Ring Finger Protein 43 (RNF43) and drosha ribonuclease […] (DROSHA) served as controls, and allele ratios remain unchanged with treatment (FIG. 2B). To investigate for changes at the protein level, NCI-H358 cells were treated for 24 hours with either LY3023414 or DMSO.
as §1, §2
On the technique in general: A western blot detects proteins with antibodies after separation by electrophoresis.

Series [4] relates to nonsense mediated decay (NMD). As to the kind of experiment: Targeted RNA sequencing of heterozygous indel mutations in NCI-H358 and LS180 cells. Format: cell-based. As to conditions: NCI-H358 and LS180 cells treated in-vitro.
Text: as §3, §1, §2

Series [5] concerns NCI-H716 and NCI-2228 cell lines with and without HLA-A24 expression. As to the kind of experiment: Luciferase cell killing co-culture assay. It counts as cell-based. As to conditions: with human CD8+ T-cells and bispecific antibody. How it is done:
To determine whether this relief of repression is targetable, a bispecific antibody targeting wild type TP53 and CD3 was employed. […] To assess if these novel antigens could be utilized for immune driven cell specific killing, NCI-H716 and NCI-2228 cell lines with and without HLA-A24 expression were labeled with luciferase. […] To establish this effect remained in-vivo, NCI-H716 cells expressing HLA-A24 and luciferase were placed orthotopically in NSG mice. Tumor size was measured by luciferase readings via bioluminescence imaging (BLI).

The subject of the next series is LLC (Lewis Lung Cancer). As to the kind of experiment: Syngeneic LLC tumor mouse model. It counts as in vivo, mice. An excerpt:
Murine RENCA (renal) and LLC (Lewis Lung Cancer) cell lines were chosen as they harbor a large number of out of frame indel mutations based on whole exome DNA sequencing (WES) (Table SX-RENCA and LLC mutations). It was confirmed that treatment of these cell lines could stop NMD mediated repression of mutant RNA, and induced expression of exogenous genes controlled by NMD by real time PCR. […]

For a further series, the system named is RENCA (renal). As to the kind of experiment: Syngeneic RENCA tumor mouse model. Format: in vivo, mice. How it is done: Confident NMD inhibition with the compound of Formula I was leading to in-vivo changes to the tumor and its immune environment and it was evaluated whether these alterations could be taken advantage of in an immune competent system. Murine RENCA (renal) and LLC (Lewis Lung Cancer) cell lines were chosen as they harbor a large number of out of frame indel mutations based on whole exome DNA sequencing (WES) (Table SX-RENCA and LLC mutations). It was confirmed that treatment of these cell lines could stop NMD mediated repression of mutant RNA, and induced expression of exogenous genes controlled by NMD by real time PCR. Cells were placed in the mammary fat pad of C57BL/6N (LLC also known as LL2) and BALB/c (RENCA) mice, randomly sorted animals after tumors became palpable ensuring to balance the tumor size of each group, and then treated with vehicle or the compound of Formula I (FIG. 6A).

The test system of another series is melanoma line B16-F10. As to the kind of experiment: Syngeneic B16-F10 melanoma model. It counts as in vivo.
For another series, the target named is SMG1 protein (Homo sapiens, UniProt Q96Q15). As to the kind of experiment: Kinativ assay. It counts as binding. As to conditions: 100 nM run in duplicate.
Sequence of SMG1 protein (Q96Q15 whole entry): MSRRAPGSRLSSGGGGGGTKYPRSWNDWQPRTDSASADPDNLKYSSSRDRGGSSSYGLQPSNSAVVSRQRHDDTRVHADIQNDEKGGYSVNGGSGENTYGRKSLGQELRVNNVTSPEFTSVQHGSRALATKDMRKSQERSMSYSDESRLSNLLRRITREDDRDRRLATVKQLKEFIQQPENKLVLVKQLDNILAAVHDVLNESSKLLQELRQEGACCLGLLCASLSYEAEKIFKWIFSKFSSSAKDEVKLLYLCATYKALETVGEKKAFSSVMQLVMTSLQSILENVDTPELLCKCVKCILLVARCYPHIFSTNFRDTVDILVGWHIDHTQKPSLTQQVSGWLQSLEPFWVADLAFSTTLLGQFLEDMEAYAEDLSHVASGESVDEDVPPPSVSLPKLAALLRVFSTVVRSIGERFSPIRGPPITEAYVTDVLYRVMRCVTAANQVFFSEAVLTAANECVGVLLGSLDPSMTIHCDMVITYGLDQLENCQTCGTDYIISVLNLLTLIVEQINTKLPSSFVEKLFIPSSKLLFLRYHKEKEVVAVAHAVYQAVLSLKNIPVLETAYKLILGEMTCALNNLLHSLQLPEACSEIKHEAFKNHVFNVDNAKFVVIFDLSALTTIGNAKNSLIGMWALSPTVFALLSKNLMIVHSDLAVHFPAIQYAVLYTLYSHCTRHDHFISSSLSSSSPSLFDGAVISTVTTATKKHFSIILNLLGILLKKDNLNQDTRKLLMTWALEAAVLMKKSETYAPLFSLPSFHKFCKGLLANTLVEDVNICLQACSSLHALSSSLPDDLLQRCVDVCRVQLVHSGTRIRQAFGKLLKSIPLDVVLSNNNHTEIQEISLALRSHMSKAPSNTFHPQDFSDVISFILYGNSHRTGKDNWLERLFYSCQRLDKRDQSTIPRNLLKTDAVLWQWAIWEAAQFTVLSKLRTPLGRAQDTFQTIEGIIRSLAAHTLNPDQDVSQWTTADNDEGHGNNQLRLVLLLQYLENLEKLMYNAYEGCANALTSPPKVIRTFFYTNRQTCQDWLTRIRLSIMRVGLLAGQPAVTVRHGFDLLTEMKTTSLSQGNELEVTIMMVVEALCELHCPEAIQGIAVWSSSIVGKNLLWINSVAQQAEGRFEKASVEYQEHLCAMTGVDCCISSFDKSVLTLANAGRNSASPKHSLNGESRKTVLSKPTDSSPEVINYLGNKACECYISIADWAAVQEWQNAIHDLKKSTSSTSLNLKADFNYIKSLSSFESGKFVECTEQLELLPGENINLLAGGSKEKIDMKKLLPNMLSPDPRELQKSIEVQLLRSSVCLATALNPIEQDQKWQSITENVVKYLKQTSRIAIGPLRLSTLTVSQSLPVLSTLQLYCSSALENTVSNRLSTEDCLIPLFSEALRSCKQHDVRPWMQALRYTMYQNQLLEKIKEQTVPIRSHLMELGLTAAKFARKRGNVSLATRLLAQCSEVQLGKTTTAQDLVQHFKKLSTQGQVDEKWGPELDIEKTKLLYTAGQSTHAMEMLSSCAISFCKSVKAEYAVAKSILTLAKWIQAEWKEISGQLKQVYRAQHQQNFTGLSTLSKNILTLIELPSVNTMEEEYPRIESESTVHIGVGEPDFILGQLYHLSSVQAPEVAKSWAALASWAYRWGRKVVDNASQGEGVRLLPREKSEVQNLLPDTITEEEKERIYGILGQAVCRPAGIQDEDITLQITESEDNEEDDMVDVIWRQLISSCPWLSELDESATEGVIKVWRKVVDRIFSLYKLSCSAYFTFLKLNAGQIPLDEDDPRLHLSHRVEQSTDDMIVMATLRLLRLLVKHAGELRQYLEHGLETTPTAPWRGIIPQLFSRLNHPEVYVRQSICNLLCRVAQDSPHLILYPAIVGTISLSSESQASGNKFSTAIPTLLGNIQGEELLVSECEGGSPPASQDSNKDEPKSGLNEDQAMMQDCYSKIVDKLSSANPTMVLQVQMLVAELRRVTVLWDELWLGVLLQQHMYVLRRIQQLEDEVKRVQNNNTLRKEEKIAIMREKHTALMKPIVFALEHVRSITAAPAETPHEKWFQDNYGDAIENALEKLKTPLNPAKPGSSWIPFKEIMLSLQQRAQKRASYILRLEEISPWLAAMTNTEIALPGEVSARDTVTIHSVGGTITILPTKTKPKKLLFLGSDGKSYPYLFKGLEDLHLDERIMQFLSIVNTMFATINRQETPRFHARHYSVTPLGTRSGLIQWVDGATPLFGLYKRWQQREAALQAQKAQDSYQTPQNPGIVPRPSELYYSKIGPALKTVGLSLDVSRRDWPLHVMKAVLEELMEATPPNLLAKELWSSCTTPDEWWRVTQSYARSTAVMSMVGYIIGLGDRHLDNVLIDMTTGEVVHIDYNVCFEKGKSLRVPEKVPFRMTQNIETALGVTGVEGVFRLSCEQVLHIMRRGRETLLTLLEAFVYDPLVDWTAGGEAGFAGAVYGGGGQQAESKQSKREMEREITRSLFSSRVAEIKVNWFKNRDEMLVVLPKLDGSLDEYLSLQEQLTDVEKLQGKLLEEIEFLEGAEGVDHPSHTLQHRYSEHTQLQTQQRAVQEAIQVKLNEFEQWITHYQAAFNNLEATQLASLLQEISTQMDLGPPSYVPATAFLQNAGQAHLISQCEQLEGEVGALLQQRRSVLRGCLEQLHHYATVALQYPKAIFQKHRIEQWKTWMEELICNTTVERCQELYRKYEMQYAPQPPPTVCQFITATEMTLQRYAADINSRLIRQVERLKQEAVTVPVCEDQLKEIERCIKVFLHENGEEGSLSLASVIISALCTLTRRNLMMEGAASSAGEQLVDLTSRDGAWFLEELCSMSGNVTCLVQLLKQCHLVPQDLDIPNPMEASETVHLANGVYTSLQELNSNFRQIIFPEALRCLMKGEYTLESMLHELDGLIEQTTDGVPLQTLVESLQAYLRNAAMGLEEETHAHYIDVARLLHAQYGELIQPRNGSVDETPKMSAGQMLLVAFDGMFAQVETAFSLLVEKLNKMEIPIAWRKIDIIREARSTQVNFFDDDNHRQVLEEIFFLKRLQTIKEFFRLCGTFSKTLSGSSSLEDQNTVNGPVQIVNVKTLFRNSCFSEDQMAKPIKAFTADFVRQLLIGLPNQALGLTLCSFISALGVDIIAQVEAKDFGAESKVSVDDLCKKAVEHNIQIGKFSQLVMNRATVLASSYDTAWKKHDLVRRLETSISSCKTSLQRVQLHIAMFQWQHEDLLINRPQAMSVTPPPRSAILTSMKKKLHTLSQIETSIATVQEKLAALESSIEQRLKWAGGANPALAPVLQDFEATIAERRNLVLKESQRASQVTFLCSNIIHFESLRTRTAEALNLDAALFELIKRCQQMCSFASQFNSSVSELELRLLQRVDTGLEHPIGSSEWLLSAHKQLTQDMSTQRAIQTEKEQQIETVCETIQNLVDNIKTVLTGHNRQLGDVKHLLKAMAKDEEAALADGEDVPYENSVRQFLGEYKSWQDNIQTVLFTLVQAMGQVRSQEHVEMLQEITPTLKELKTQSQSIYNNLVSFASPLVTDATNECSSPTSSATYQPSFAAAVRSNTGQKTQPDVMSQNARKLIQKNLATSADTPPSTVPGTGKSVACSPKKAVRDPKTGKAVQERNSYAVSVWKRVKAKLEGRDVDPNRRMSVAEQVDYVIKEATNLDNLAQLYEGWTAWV

For the molecule `CNC(=O)Nc1ccc(-c2cc(-c3ccnc(Nc4ccc(Cl)c(S(=O)(=O)N5CCNCC5)c4)n3)ccn2)cc1` [compound of Formula I], the “cell surface MHC presentation of mutant specific neoantigen” value in the series with NCI-H358 and LS180 cells is “presence of a neoantigen specific to the mutant alleles of two genes in NCI-H358 and two other genes in LS180 cells”. For the same molecule, the interferon gamma release result in the series on NCI-H716 and NCI-2228 (with bispecific antibody and human CD8+ T-cells) is recorded as “increase in interferon gamma release”. Besides, in the series on NCI-H716 and NCI-2228 (without bispecific antibody), the interferon gamma levels result is “no change in interferon gamma levels”. Also, in the series with phosphorylated UPF1, the “amount of phosphorylated UPF1” value is on record as “strongly decreased the amount of phosphorylated UPF1”. Besides, the “physical properties related to solubility” value in series [1] is “more desirable physical properties related to solubility”. In addition, in series [2] (doses up to 50 mg/kg), the “toxicity related behavior (e.g., hunching, lethargy)” value was “did not show any toxicity related behavior”. Moreover, the “mutant transcript levels in tumors relative to untreated mice” value in series [2] (intraperitoneal (IP)) is “increases in mutant transcript levels”. Moreover, in [3], the “mutant protein expression (western blot)” value is “induce expression of the NMD targeted mutant protein”. Besides, the “bioactive concentration range (dose response curves)” value in [4] is listed as “bioactive in the nanomolar range”. Also, the cell killing result in series [5] is reported as “cell killing only in cells with HLA-A24 present”. Further, the weight loss entry with LLC (Lewis Lung Cancer) (C57BL/6N background) is given as “No weight loss”; in the series on RENCA (renal) (BALB/c background, within tolerable limits), “Some weight loss”. For the same molecule, the tumor growth result with LLC (Lewis Lung Cancer) (C57BL/6N mice, 30 mg/kg) is “Significant slowing of tumor growth”; in the series on RENCA (renal) (BALB/c mice, 20 mg/kg), “Significant slowing of tumor growth”. Also, the “tumor growth in immunosuppressed mice” value in the series with LLC (Lewis Lung Cancer) (immunodeficient C57BL/6N SCID mice) and in the series on RENCA (renal) (immunodeficient NSG (BALB/c) mice) was “minimal or no difference in cell growth” throughout. Also, in the series with melanoma line B16-F10, the tumor volume result is “showed a change in tumor volume”. In addition, on SMG1 protein, the “specificity for SMG1 over other kinases” value is listed as “maintains high specificity for SMG1 protein over other kinases”.
